# According to EP4653444A1, “FUSED TRICYCLIC COMPOUND AS KINASE INHIBITOR” (Hangzhou Innogate Pharma Co., Ltd., priority 2023, dated 2024):
# pIC50: −log10 of the molar value. Read-outs that look alike come from different tables or passages of the source.
# Key:
# Type in all cases: biochemical
# HPK1 kinase = HPK1 kinase (Homo sapiens, UniProt Q92918); assay: HPK1 kinase activity inhibition assay (Mobility shift assay)
# Protocol: Measure compound inhibitory activity against HPK1 kinase using Mobility shift assay. Compounds were dissolved in 100% DMSO to prepare 10 mM stock solutions. 1× Kinase buffer was prepared. Test compounds were serially diluted in 5-fold gradients, and 250 nL of 100× final concentration compounds were transferred to destination plate 3573 using an Echo 550 liquid handler. A 2.5× final concentration kinase solution was prepared in 1× Kinase Buffer. 10 µL of the 2.5× kinase solution was added to both compound wells and positive control wells, while 10 µL of 1× Kinase buffer was added to negative control wells. The plate was centrifuged at 1000 rpm for 30 seconds, mixed by orbital shaking, and incubated at room temperature for 10 minutes. A 5/3× final concentration mixture of ATP and Kinase substrate 25 was prepared in 1× Kinase buffer. 15 µL of the 5/3× ATP/substrate mixture was added to initiate the reaction. The 384-well plate was centrifuged at 1000 rpm for 30 seconds, mixed by shaking, and incubated at room temperature for 120 minutes. The kinase reaction was terminated by adding 30 µL stop solution, followed by centrifugation at 1000 rpm for 30 seconds and mixing. Conversion rates were measured using a Caliper EZ Reader. The inhibition percentage was calculated as: %Inhibition = (Conversion%_max - Conversion%_sample)/(Conversion%_max - Conversion%_min) × 100. Where Conversion%_sample: Conversion rate reading of test samples; Conversion%_min: Mean value of negative control wells (representing conversion rate without enzyme activity); Conversion%_max: Mean value of positive control wells (representing conversion rate without compound inhibition). Dose-response curves were plotted with log(concentration) as the X-axis and percentage inhibition as the Y-axis. Curve fitting was performed using GraphPad Prism 5 software with the "log(inhibitor) vs. response - Variable slope" model to derive IC50 values for each compound's enzyme inhibitory activity. The fitting formula was: Y = Bottom + (Top - Bottom)/(1 + 10^((LogIC50 - X) × HillSlope)).
# FAK kinase = FAK kinase (Homo sapiens, UniProt Q05397); assay: FAK kinase activity inhibition assay, method A (HTRF) and method B (Lantha screen)
# FAK kinase, sequence (Q05397 whole entry): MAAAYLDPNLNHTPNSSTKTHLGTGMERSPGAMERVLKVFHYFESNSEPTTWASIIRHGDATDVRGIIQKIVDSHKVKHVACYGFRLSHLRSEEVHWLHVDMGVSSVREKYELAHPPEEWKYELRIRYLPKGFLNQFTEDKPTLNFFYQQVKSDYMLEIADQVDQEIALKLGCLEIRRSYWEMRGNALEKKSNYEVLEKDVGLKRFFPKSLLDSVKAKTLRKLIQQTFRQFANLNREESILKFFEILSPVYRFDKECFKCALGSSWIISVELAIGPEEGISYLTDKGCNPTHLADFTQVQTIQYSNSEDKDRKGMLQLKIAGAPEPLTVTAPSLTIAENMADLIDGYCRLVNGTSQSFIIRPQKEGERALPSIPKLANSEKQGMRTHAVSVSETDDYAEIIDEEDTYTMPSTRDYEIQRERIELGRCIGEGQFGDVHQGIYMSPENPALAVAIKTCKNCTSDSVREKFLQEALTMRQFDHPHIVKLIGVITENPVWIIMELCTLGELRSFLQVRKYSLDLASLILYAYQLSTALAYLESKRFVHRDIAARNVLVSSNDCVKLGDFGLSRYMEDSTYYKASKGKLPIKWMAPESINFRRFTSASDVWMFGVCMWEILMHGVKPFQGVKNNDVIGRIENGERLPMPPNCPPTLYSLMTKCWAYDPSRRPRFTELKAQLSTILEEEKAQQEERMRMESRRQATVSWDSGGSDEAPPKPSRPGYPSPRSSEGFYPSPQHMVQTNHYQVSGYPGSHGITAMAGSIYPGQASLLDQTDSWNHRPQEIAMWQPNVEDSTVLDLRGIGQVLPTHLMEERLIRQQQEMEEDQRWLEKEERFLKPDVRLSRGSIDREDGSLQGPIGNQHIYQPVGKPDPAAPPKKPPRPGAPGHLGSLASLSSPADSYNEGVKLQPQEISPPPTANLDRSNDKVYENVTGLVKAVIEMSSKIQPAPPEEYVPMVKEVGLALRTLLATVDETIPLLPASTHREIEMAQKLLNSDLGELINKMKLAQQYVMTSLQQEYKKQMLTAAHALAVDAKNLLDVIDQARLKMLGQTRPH
# Protocol: The HTRF method was used to evaluate the inhibitory activity of the compounds against FAK kinase. […]. The reaction conditions were: FAK kinase at 0.1 ng/µL; ATP 10 µM; substrate concentration 1 µM. Compounds were serially diluted in DMSO and shaken on a shaker for 20 minutes. Prepare 2× kinase using 1× reaction buffer. Transfer 25 nL compound to a 384-well plate using Echo 655. Add 2.5 µL kinase per well. Seal the plate with sealing film, centrifuge at 1000 rpm for 60 seconds, and incubate at 25°C for 12 hours. Prepare 2× ATP/substrate mix using 1× enzyme reaction buffer and add 2.5 µL 2× ATP/substrate mix per well. Seal the plate with sealing film, centrifuge at 1000 rpm for 60 seconds, and incubate at 25°C for 50 minutes. Prepare 2×XL665 & antibody solution using HTRF detection buffer, and add 5 µL per well. Incubate at 25°C for 60 minutes. Read fluorescence at 620 nm (Cryptate) and 665 nm (XL665). Calculate the ratio per well (Ratio_665/620 nm). % Inhibition = 100% - [(Compound Ratio - Positive Control Ratio)/ (Negative Control Ratio - Positive Control Ratio)] × 100%. IC50 values (half-maximal inhibitory concentration) were calculated by nonlinear regression using GraphPad Prism 7.0. Y = Bottom + (Top - Bottom)/ (1 + 10^ ((LogIC50 - X) × Hill Slope)), where X is the log of compound concentration and Y is the % inhibition.
# The Lantha screen assay was used to evaluate the FAK kinase inhibitory activity. Compounds were dissolved in 100% DMSO at 10 mM stock concentration. Prepare 1× kinase buffer (25 mM HEPES, pH 7.5, 0.01 mM Triton, 0.5 mM EGTA, 0.01% Brij-35). Dilute compounds in a gradient, and transfer 5 µL compound into the reaction plate. Prepare 2× kinase solution with 1× Kinase buffer. Add 5 µL kinase solution to compound and positive control wells, and 5 µL 1× Kinase buffer to negative control wells. Mix reaction plate by shaking. Prepare 4× ATP/Fluorescein-polyGT substrate mix with 1× Kinase buffer. Add 2.5 µL substrate solution to initiate the reaction. Shake and incubate at room temperature for 30 minutes. Prepare 2× detection reagent (2 nM antibody, 10 mM EDTA) and add 10 µL per well to stop the reaction. Briefly centrifuge, mix, and incubate for 60 minutes. Read fluorescence at 340 nm excitation and 520 nm/495 nm emission using EnVision. Collect data and calculate 520 nm/495 nm ratio. Calculate the inhibition percentage using the formula: % Inhibition = (Max - Sample Ratio)/(Max - Min) × 100, where min is the mean of negative control wells (no enzyme activity), and max is the mean of positive control wells (DMSO-inhibited conversion rate).Use XLFit Excel add-in version 5.4.0.8 to determine the IC50 values of each compound against the enzyme activity: Y = Bottom + (Top - Bottom)/(1 + (IC50/X)^HillSlope).
# CDK7/CycH/MAT1 kinase = CDK7/CycH/MAT1 kinase (Homo sapiens, UniProt P50613); assay: CDK7 kinase activity inhibition assay (ADP-Glo)
# CDK7/CycH/MAT1 kinase, sequence (P50613 whole entry, species assumed): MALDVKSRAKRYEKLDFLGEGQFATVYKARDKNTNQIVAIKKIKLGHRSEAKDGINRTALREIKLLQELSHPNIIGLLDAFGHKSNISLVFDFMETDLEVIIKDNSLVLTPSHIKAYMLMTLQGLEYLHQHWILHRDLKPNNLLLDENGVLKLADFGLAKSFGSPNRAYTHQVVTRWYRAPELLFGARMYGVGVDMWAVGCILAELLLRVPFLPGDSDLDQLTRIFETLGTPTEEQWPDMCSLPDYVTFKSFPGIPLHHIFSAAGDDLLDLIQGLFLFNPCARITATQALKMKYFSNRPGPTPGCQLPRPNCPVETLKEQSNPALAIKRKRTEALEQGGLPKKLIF
# CDK7/CycH/MAT1 kinase, sequence (P51946 whole entry partner, species assumed): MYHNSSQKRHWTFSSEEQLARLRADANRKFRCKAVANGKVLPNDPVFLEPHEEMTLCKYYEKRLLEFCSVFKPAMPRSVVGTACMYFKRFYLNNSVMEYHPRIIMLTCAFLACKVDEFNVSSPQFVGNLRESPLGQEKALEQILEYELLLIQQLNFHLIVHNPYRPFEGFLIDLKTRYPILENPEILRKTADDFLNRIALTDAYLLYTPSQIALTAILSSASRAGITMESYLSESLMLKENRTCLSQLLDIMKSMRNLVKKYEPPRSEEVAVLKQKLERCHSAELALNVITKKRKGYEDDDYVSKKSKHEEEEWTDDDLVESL
# CDK7/CycH/MAT1 kinase, sequence (P51948 whole entry partner, species assumed): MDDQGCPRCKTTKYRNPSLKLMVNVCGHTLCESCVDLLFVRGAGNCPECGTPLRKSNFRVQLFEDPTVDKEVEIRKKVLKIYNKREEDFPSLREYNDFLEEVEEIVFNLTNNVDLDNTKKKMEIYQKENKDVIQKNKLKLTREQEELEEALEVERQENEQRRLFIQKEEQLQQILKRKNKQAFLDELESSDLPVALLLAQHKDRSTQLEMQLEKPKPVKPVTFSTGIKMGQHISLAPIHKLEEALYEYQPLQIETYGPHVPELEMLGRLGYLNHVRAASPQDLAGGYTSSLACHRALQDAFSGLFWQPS
# Protocol: Measure compound inhibitory activity against CDK7/CycH/MAT1 kinase using ADP-Glo assay. 1× kinase reaction buffer was prepared (working concentrations: HEPES 50 mM, MgCl2 10 mM, Brij35 0.01%, DTT 2 mM). The kinase reaction conditions were as follows: Kinase concentration: 3.5 ng/µL; Substrate mixture working concentrations: ATP 30 µM, CDK substrate 0.1 mg/ mL. Compounds were serially diluted in DMSO and shaken on an orbital shaker for 20 minutes. 2× kinase solution was prepared using 1× kinase buffer. 1 µL of compound solution was transferred to a 384-well plate. 2 µL of kinase solution was added to each well of the reaction plate. The plate was sealed with adhesive film, centrifuged at 1000 rpm for 60 seconds, and incubated at 25°C for 10 minutes. 4× ATP&substrate mixture was prepared using 1× kinase buffer. 1 µL of 4× ATP&substrate mixture was added to the reaction plate. The plate was sealed with adhesive film, centrifuged at 1000 rpm for 60 seconds, and incubated at 25°C for 60 minutes. 4 µL of ADP-Glo reagent was transferred to the 384-well reaction plate, centrifuged at 1000 rpm for 1 minute, and incubated at 25°C for 40 minutes. 8 µL of Detection solution was transferred to the 384-well reaction plate, centrifuged at 1000 rpm for 1 minute, and incubated at 25°C for 40 minutes. Relative luminescence units (RLU) were measured using a BMG microplate reader, with signal intensity representing kinase activity level. The inhibition percentage was calculated as follows: % inhibition = 100% - [(Compound RLU - Positive Control RLU)/(Negative Control RLU - Positive Control RLU)] × 100%. The IC50 values (half-maximal inhibitory concentration) of compounds were determined by fitting the data to the following nonlinear regression equation using GraphPad Prism 7.0 software: Y = Bottom + (Top - Bottom)/(1 + 10^((LogIC50 - X) × Hill Slope)), where: X = log(compound concentration), Y = % inhibition.
# [1] = Table 4, ATP 30 µM, read-out: CDK7 (IC50)
# HPK1 kinase, sequence (Q92918 whole entry): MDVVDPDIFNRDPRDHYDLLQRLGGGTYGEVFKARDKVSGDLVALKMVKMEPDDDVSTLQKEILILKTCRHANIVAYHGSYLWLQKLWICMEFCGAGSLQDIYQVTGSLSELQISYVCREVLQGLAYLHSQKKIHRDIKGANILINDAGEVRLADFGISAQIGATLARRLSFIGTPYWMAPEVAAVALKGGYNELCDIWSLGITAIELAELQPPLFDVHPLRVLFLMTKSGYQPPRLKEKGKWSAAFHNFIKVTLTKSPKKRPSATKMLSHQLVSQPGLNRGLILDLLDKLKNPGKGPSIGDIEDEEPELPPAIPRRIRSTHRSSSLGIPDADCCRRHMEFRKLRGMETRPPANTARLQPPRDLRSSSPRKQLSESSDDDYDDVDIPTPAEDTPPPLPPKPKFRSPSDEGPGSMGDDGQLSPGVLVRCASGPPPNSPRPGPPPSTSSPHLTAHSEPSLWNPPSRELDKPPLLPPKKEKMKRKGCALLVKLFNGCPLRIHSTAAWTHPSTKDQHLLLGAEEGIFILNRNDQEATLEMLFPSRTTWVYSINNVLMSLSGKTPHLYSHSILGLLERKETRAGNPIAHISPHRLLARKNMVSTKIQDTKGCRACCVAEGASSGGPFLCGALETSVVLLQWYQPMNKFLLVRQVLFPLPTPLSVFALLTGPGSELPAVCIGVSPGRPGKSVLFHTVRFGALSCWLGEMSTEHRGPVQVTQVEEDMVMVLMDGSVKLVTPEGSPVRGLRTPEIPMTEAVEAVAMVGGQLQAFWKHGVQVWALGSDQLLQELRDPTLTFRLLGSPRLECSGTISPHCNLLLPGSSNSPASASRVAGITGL
Structure (SMILES),"pIC50 (HPK1 kinase; Table 4, read-out: HPK1 (IC50))",pIC50 (FAK kinase),pIC50 (CDK7/CycH/MAT1 kinase; [1]),pIC50 (HPK1 kinase),pIC50 (CDK7/CycH/MAT1 kinase)
CNC(=O)c1ccccc1Nc1cc(Nc2cc3c(cc2OC)N2CCN(C4CCN(C)CC4)C[C@H]2CO3)ncc1C(F)(F)F [Compound D2S],> 7.52,> 9.30,> 7.82,,
COc1cc2c(cc1Nc1ncc(Cl)c(Nc3ccccc3S(=O)(=O)C(C)C)n1)OC[C@@H]1CN(C3CCN(C)CC3)CCN21 [Compound C2S],,> 9.00,,,
CNC(=O)c1ccccc1Nc1cc(Nc2cc3c(cc2OC)N2CCN(C4CN(C)C4)C[C@H]2CO3)ncc1C(F)(F)F [Compound D4S],> 7.70,> 9.00,> 8.00,,
CNC(=O)c1ccccc1Nc1cc(Nc2cc3c(cc2OC)N2CCN(C4CCN(C)CC4)C[C@@H]2CO3)ncc1C(F)(F)F [Compound D2R],,> 9.00,,> 7.52,> 7.82
COc1cc2c(cc1Nc1ncc(Cl)c(Nc3ccccc3S(=O)(=O)C(C)C)n1)OC[C@@H]1CN(C3CCOCC3)CCN21 [Compound C1S],,> 9.00,,,
